Source: patent publication US8207154B2, “Catatonic bacteriochlorophyll derivatives” (Yeda Research and Development Co., Ltd., priority 2005, dated 2012)
pIC50: −log10 of the molar value. Read-outs that look alike come from different tables or passages of the source.

System: H5V cells
Assay: Phototoxicity assay (PDT efficacy at two incubation times), neutral red survival
Assay type: cell-based, mouse
Details: for pIC50: then 10 min illumination, 12 J/cm^2
Method: H5V cells (40×10^3/well) were cultured in 96-well plates for 24 h to ˜80% confluence. To determine phototoxicity, the culture medium was replaced with 100 μl/well medium, in the absence or presence of 10^−8 to 10^−6 M sensitizer, and incubated in the dark for 15 min or 3 h in the culture incubator. The plates (PDT group) were then placed in the light field at room temperature and illuminated from the bottom for 10 min (800>λ>650 nm, 12 J/cm^2). After illumination, the medium was changed to fresh culture medium. The cultures were then placed in the culture incubator and cell survival was determined 24 h later, using the neutral red survival assay described below.
Following 24 h post PDT the culture medium in the wells was replaced with 100 μl fresh medium containing 40 μg/ml neutral red. The plate was incubated for 1.5 h in a dark culture incubator. The medium was aspirated and the cells washed with 100 μl of solution containing 1% CaCl2 and 0.5% formaldehyde, which removes the unincorporated dye and fixes the cells to the substratum. The dye was then extracted from the cells into the supernatant upon addition of 100 μl 1% glacial acetic acid in 50% ethanol. After 1-2 min at room temperature, the optical density of the wells was determined in a microplate spectrophotometer using a 570 nm filter. After subtraction of assay blanks, net optical density was computed as the average value of triplicate determinations. Cell survival was calculated as the percent of the dye accumulated in the untreated control. To determine cell survival data was plotted against sensitizer concentration. These curves were then used to calculated LD50 values.
Following synthesis, the compounds described in the Examples 23 to 75 above were purified, divided into equal aliquots and lyophilized for storage (desiccated at −20° C.). The exact material content was determined by HPLC-diode array detection, and the PDT efficacy was evaluated at two incubation times as described in the experimental section.

[1] = 15 min incubation in the dark, read-out: IC50 15 min
[2] = 3 h incubation in the dark, read-out: IC50 3 hours

Row | Compound | pIC50 [1] | pIC50 [2] | PDT activity relative to compound 24 (at both incubation times)
1 | CC[C@H]1C2=NC(=Cc3c(C(C)=O)c(C)c4[n]3[Pd][n]3c(c(C)c(C(=O)NCCN)c3=C(CC(=O)OC)C3=NC(=C4)[C@@H](C)[C@@H]3CCC(=O)NCCN)=C2)[C@@H]1C [Compound 10, Palladium 3^1-oxo-15-methoxycarbonylmethyl-Rhodobacteriochlorin-13^1, 17^3-di(2-aminoethyl)amide] | 6.13 | 6.62 | 
2 | CC[C@H]1C2=NC(=Cc3c(C(C)=O)c(C)c4[n]3[Pd][n]3c(c(C)c(C(=O)NCCN(C)C)c3=C(CC(=O)OC)C3=NC(=C4)[C@@H](C)[C@@H]3CCC(=O)O)=C2)[C@@H]1C [Compound 25, Palladium 3^1-oxo-15-methoxycarbonylmethyl-Rhodobacteriochlorin-13^1-(2-N^2-dimethylaminoethyl)amide] | 5.96 | 6.12 | 
3 | CC[C@H]1C2=NC(=Cc3c(C(C)=O)c(C)c4[n]3[Pd][n]3c(c(C)c(C(=O)NCCCN(C)C)c3=C(CC(=O)OC)C3=NC(=C4)[C@@H](C)[C@@H]3CCC(=O)O)=C2)[C@@H]1C [Compound 26, Palladium 3^1-oxo-15-methoxycarbonylmethyl-Rhodobacteriochlorin-13^1-(3-N^2-dimethylaminopropyl)amide] | 6.00 | 6.35 | 
4 | CC[C@H]1C2=NC(=Cc3c(C(C)=O)c(C)c4[n]3[Pd][n]3c(c(C)c(C(=O)NCCNCCN)c3=C(CC(=O)OC)C3=NC(=C4)[C@@H](C)[C@@H]3CCC(=O)O)=C2)[C@@H]1C [Compound 27, Palladium 3^1-oxo-15-methoxycarbonylmethyl-Rhodobacteriochlorin-13^1-(2-[(2-aminoethyl)amino]ethyl)amide] | 5.82 | 6.35 | 
5 | CC[C@H]1C2=NC(=Cc3c(C(C)=O)c(C)c4[n]3[Pd][n]3c(c(C)c(C(=O)NCCN(CCN)CCN)c3=C(CC(=O)OC)C3=NC(=C4)[C@@H](C)[C@@H]3CCC(=O)O)=C2)[C@@H]1C [Compound 28, Palladium 3^1-oxo-15-methoxycarbonylmethyl-Rhodobacteriochlorin-13^1-([2-bis(2-aminoethyl)amino]ethyl)amide] | 5.89 | 6.42 | 
6 | CC[C@H]1C2=NC(=Cc3c(C(C)=O)c(C)c4[n]3[Pd][n]3c(c(C)c(C(=O)NCCN5CCOCC5)c3=C(CC(=O)OC)C3=NC(=C4)[C@@H](C)[C@@H]3CCC(=O)O)=C2)[C@@H]1C [Compound 29, Palladium 3^1-oxo-15-methoxycarbonylmethyl-Rhodobacteriochlorin-13^1-(2-morpholino-N-ethyl)amide] | 5.72 | 5.72 | 
7 | CC[C@H]1C2=NC(=Cc3c(C(C)=O)c(C)c4[n]3[Pd][n]3c(c(C)c(C(=O)NCCN5CCNCC5)c3=C(CC(=O)OC)C3=NC(=C4)[C@@H](C)[C@@H]3CCC(=O)O)=C2)[C@@H]1C [Compound 30, Palladium 3^1-oxo-15-methoxycarbonylmethyl-Rhodobacteriochlorin-13^1-(2-piperazino-N-ethyl)amide] | 5.77 | 6.21 | 
8 | CC[C@H]1C2=NC(=Cc3c(C(C)=O)c(C)c4[n]3[Pd][n]3c(c(C)c(C(=O)NCCNCCN(CC)CC)c3=C(CC(=O)OC)C3=NC(=C4)[C@@H](C)[C@@H]3CCC(=O)O)=C2)[C@@H]1C [Compound 31, Palladium 3^1-oxo-15-methoxycarbonylmethyl-Rhodobacteriochlorin-13^1-(2-[(2-N^2-diethylaminoethyl)amino]ethyl)amide] | 5.59 | 6.22 | 
9 | CC[C@H]1C2=NC(=Cc3c(C(C)=O)c(C)c4[n]3[Pd][n]3c(c(C)c(C(=O)NCCCNCCCN)c3=C(CC(=O)OC)C3=NC(=C4)[C@@H](C)[C@@H]3CCC(=O)O)=C2)[C@@H]1C [Compound 32, Palladium 3^1-oxo-15-methoxycarbonylmethyl-Rhodobacteriochlorin-13^1-(3-[(3-aminopropyl)amino]propyl)amide] | 6.22 | 6.60 | 4-5 times
10 | CC(=O)[O-].CC(=O)[O-].CC[C@H]1C2=NC(=Cc3c(C(C)=O)c(C)c4[n]3[Pd][n]3c(c(C)c(C(=O)NCC[N+](C)(C)C)c3=C(CC(=O)OC)C3=NC(=C4)[C@@H](C)[C@@H]3CCC(=O)NCC[N+](C)(C)C)=C2)[C@@H]1C [Compound 33, Palladium 3^1-oxo-15-methoxycarbonylmethyl-Rhodobacteriochlorin-13^1, 17^3-di(2-N^3-trimethylammoniumethyl)amide diacetate salt] | 6.12 | 6.35 | 
11 | CC[C@H]1C2=NC(=Cc3c(C(C)=O)c(C)c4[n]3[Pd][n]3c(c(C)c(C(=O)NCCCN)c3=C(CC(=O)OC)C3=NC(=C4)[C@@H](C)[C@@H]3CCC(=O)NCCCN)=C2)[C@@H]1C [Compound 34, Palladium 3^1-oxo-15-methoxycarbonylmethyl-Rhodobacteriochlorin-13^1, 17^3-di(3-aminopropyl)amide] | 6.32 | 6.70 | 
12 | CC[C@H]1C2=NC(=Cc3c(C(C)=O)c(C)c4[n]3[Pd][n]3c(c(C)c(C(=O)NCCCCN)c3=C(CC(=O)OC)C3=NC(=C4)[C@@H](C)[C@@H]3CCC(=O)NCCCCN)=C2)[C@@H]1C [Compound 35, Palladium 3^1-oxo-15-methoxycarbonylmethyl-Rhodobacteriochlorin-13^1, 17^3-di(4-aminobutyl)amide] | 5.91 | 6.68 | 
13 | CC[C@H]1C2=NC(=Cc3c(C(C)=O)c(C)c4[n]3[Pd][n]3c(c(C)c(C(=O)NCCN(C)C)c3=C(CC(=O)OC)C3=NC(=C4)[C@@H](C)[C@@H]3CCC(=O)NCCN(C)C)=C2)[C@@H]1C [Compound 36, Palladium 3^1-oxo-15-methoxycarbonylmethyl-Rhodobacteriochlorin-13^1, 17^3-di(2-N^2-dimethylaminoethyl)amide] | 6.43 | 6.82 | 
14 | CC[C@H]1C2=NC(=Cc3c(C(C)=O)c(C)c4[n]3[Pd][n]3c(c(C)c(C(=O)NCCCN(C)C)c3=C(CC(=O)OC)C3=NC(=C4)[C@@H](C)[C@@H]3CCC(=O)NCCCN(C)C)=C2)[C@@H]1C [Compound 37, Palladium 3^1-oxo-15-methoxycarbonylmethyl-Rhodobacteriochlorin-13^1, 17^3-di(3-N^2-dimethylaminopropyl)amide] | 6.12 | 6.68 | 
15 | CC[C@H]1C2=NC(=Cc3c(C(C)=O)c(C)c4[n]3[Pd][n]3c(c(C)c(C(=O)NCCNCCN)c3=C(CC(=O)OC)C3=NC(=C4)[C@@H](C)[C@@H]3CCC(=O)NCCNCCN)=C2)[C@@H]1C [Compound 38, Palladium 3^1-oxo-15-methoxycarbonylmethyl-Rhodobacteriochlorin-13^1, 17^3-di-(2-[(2-aminoethyl)amino]ethyl)amide] | 6.36 | 6.80 | 
16 | CCC1C2=Cc3c(C)c(C(=O)NCCNCCN(CC)CC)c4[n]3[Pd][n]3c(c(C)c(C(C)=O)c3=CC(=N2)C1C)=CC1=NC(=C4CC(=O)OC)C(CCC(=O)NCCNCCN(CC)CC)C1C (centres unmarked) [Compound 39, Palladium 3^1-oxo-15-methoxycarbonylmethyl-Rhodobacteriochlorin-13^1,17^3-di-(2-[(2-N^2-diethylaminoethyl)amino]ethyl) amide] | 5.61 | 5.96 | 
17 | CC[C@H]1C2=NC(=Cc3c(C(C)=O)c(C)c4[n]3[Pd][n]3c(c(C)c(C(=O)NCCN5CCOCC5)c3=C(CC(=O)OC)C3=NC(=C4)[C@@H](C)[C@@H]3CCC(=O)NCCN3CCOCC3)=C2)[C@@H]1C [Compound 40, Palladium 3^1-oxo-15-methoxycarbonylmethyl-Rhodobacteriochlorin-13^1, 17^3-di(2-morpholino-N-ethyl)amide] | 6.15 | 6.46 | 
18 | CCC1c2cc3[n-]c(c(CC(=O)OC)c4nc(cc5[n-]c(cc(n2)C1C)c(C(C)=O)c5C)C(C)C4CCC(=O)NCCN1CCNCC1)c(C(=O)NCCN1CCNCC1)c3C.[Pd+2] (centres unmarked) [Compound 41, Palladium 3^1-oxo-15-methoxycarbonylmethyl-Rhodobacteriochlorin-13^1, 17^3-di(2-piperazino-N-ethyl)amide] | 5.95 | 6.34 | 
19 | CCC1c2cc3[n-]c(c(CC(=O)OC)c4nc(cc5[n-]c(cc(n2)C1C)c(C(C)=O)c5C)C(C)C4CCC(=O)NCCCNCCCN)c(C(=O)NCCCNCCCN)c3C.[Pd+2] (centres unmarked) [Compound 42, Palladium 3^1-oxo-15-methoxycarbonylmethyl-Rhodobacteriochlorin-13^1, 17^3-di-(3-[(3-aminopropyl)amino]propyl)amide] | 6.17 | 6.55 | 
20 | CC[C@H]1C2=NC(=Cc3c(C(C)=O)c(C)c4[n]3[Pd][n]3c(c(C)c(C(=O)NCCN(CCN)CCN)c3=C(CC(=O)OC)C3=NC(=C4)[C@@H](C)[C@@H]3CCC(=O)NCCN(CCN)CCN)=C2)[C@@H]1C [Compound 43, Palladium 3^1-oxo-15-methoxycarbonylmethyl-Rhodobacteriochlorin-13^1,17^3-di([2-bis(2-aminoethyl)amino]ethyl)amide] | 6.22 | 6.74 | 
